Test results as given in patent publication US20140249147A1, “Substituted Bicyclic Aza-Heterocycles and Analogues as Sirtuin Modulators” (GlaxoSmithKline, LLC, priority 2011, published 2014).

Columns and labels:
SIRT1 [1] = biological target: T1, SIRT1 (Homo sapiens, UniProt Q96EB6); assay: Trp mass spectrometry assay of SIRT1 activation; format: biochemical; conditions: Trp peptide substrate; for TYP EC1.5 (μM): concentration giving 150% activation of SIRT1; for TYP % Fold Act: percent maximum fold activation relative to control (100%)
T1 sequence (Q96EB6 1-747): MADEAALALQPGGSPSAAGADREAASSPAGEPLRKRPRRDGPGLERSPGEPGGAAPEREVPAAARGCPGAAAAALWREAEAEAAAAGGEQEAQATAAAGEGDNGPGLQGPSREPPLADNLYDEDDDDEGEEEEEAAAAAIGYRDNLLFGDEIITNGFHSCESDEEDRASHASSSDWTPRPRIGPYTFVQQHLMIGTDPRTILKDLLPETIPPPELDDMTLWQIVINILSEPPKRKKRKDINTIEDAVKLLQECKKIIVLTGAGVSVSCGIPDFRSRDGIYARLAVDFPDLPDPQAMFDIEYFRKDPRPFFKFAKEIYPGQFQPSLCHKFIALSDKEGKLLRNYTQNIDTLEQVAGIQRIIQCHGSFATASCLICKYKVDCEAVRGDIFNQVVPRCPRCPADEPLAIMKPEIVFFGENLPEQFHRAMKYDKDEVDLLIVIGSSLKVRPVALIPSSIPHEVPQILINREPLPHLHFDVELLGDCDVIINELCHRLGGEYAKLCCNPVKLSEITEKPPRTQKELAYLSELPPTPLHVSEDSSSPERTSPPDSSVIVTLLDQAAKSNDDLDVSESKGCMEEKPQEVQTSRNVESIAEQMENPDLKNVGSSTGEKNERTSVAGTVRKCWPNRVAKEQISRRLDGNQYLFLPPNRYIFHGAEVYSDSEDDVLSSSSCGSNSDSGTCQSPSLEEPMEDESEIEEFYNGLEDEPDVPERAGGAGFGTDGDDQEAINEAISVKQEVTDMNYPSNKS
Source text: (§1) Mass spectrometry based assays were used to identify modulators of SIRT1 activity. The TAMRA based assay utilized a peptide having 20 amino acid residues as follows: Ac-EE-K(biotin)-GQSTSSHSK(Ac)NleSTEG-K(5TMR)-EE-NH2 (SEQ ID NO: 1), wherein K(Ac) is an acetylated lysine residue and Nle is a norleucine. The peptide was labeled with the fluorophore 5TMR (excitation 540 nm/emission 580 nm) at the C-terminus. The sequence of the peptide substrate was based on p53 with several modifications. In addition, the methionine residue naturally present in the sequence was replaced with the norleucine because the methionine may be susceptible to oxidation during synthesis and purification. The Trp based assay utilized a peptide having an amino acid residues as follows: Ac—R—H—K—K(Ac)—W—NH2 (SEQ ID NO: 2).
The Trp mass spectrometry assay was conducted as follows. 0.5 μM peptide substrate and 120 μM βNAD^+ were incubated with 10 nM SIRT1 for 25 minutes at 25° C. in a reaction buffer (50 mM HEPES pH 7.5, […], 1 mM DTT, 0.05% BSA). The SIRT1 protein was obtained by cloning the SirT 1 gene into a T7-promoter containing vector, which was then expressed in BL21(DE3) bacterial cells and purified as described in further detail below. Test compound was added at varying concentrations to this reaction mixture and the resulting reactions were monitored. After the 25 minute incubation with SIRT1, 10 μL of 10% formic acid was added to stop the reaction. The resulting reactions were sealed and frozen for later mass spec analysis. The relative SIRT1 activity was then determined by measuring the amount of O-acetyl-ADP-ribose (OAADPR) formed (or, alternatively, the amount of deacetylated Trp peptide generated) by the NAD-dependent sirtuin deacetylation reaction in the presence of varying concentrations of the test compound versus control reactions lacking the test compound. The degree to which the test agent activated deacetylation by SIRT1 was expressed as EC1.5 (i.e., the concentration of compound required to increase SIRT1 activity by 50% over the control lacking test compound), and Percent Maximum Activation (i.e., the maximum activity relative to control (100%) obtained for the test compound).
(§2) A control for inhibition of sirtuin activity was conducted by adding 1 μL of 500 mM nicotinamide as a negative control at the start of the reaction (e.g., permits determination of maximum sirtuin inhibition). A control for activation of sirtuin activity was conducted using 10 nM of sirtuin protein, with 1 μL of DMSO in place of compound, to determine the amount of deacetylation of the substrate at a given time point within the linear range of the assay. This time point was the same as that used for test compounds and, within the linear range, the endpoint represents a change in velocity. For the above assay, SIRT1 protein was expressed and purified as follows. The SirT1 gene was cloned into a T7-promoter containing vector and transformed into BL21(DE3). The protein was expressed by induction with 1 mM IPTG as an N-terminal His-tag fusion protein at 18° C. overnight and harvested at 30,000×g. Cells were lysed with lysozyme in lysis buffer (50 mM Tris-HCl, 2 mM Tris[2-carboxyethyl]phosphine (TCEP), 10 μM ZnCl2, 200 mM NaCl) and further treated with sonication for 10 min for complete lysis. The protein was purified over a Ni-NTA column (Amersham) and fractions containing pure protein were pooled, concentrated and run over a sizing column (Sephadex S200 26/60 global). The peak containing soluble protein was collected and run on an Ion-exchange column (MonoQ). Gradient elution (200 mM-500 mM NaCl) yielded pure protein. This protein was concentrated and dialyzed against dialysis buffer (20 mM Tris-HCl, 2 mM TCEP) overnight. The protein was aliquoted and frozen at −80° C. until further use.
Sirtuin-modulating compounds of Formula (I) that activated SIRT1 were identified using the assay described above and are shown below in Table 1. […]

SIRT1 [2] = biological target: T1, SIRT1; assay: TAMRA based mass spectrometry assay of SIRT1 activation; format: biochemical; conditions: TAMRA peptide substrate; for Emax: 25 min, percent maximum fold activation relative to control (100%), read-out: TAMRA % Fold Act; for TAMRA EC1.5 (μM): concentration giving 150% activation of SIRT1
Source text: as §1
The TAMRA based mass spectrometry assay was conducted as follows: 0.5 μM peptide substrate and 120 μM βNAD^+ was incubated with 10 nM SIRT1 for 25 minutes at 25° C. in a reaction buffer (50 mM Tris-acetate pH 8, 137 mM NaCl, 2.7 mM KCl, 1 mM MgCl2, 5 mM DTT, 0.05% BSA). The SIRT1 protein was obtained by cloning the SirT1 gene into a T7-promoter containing vector, which was then transformed and expressed in BL21(DE3) bacterial cells. Test compound was added at varying concentrations to this reaction mixture and the resulting reactions were monitored. After the 25 minute incubation with SIRT1, 10 μL of 10% formic acid was added to stop the reaction. The resulting reactions were sealed and frozen for later mass spec analysis. Determination of the amount of deacetylated substrate peptide formed (or, alternatively, the amount of O-acetyl-ADP-ribose (OAADPR) generated) by the sirtuin-mediated NAD-dependent deacetylation reaction allowed for the precise measurement of relative SIRT1 activity in the presence of varying concentrations of the test compound versus control reactions lacking the test compound.
as §2
Sirtuin-modulating compounds of Formula (I) that activated SIRT1 were identified using the assay described above and are shown below in Table 1. The EC1.5 values represent the concentration of test compounds that result in 150% activation of SIRT1. The EC1.5 values for the activating compounds of Formula (I) are represented by A (EC1.5<1 μM), B (EC1.5 1-25 μM), C (EC1.5>25 μM). […]

Row | SMILES | TYP EC1.5 (μM) (SIRT1 [1]) | TYP % Fold Act (SIRT1 [1]) | Emax (SIRT1 [2]) | TAMRA EC1.5 (μM) (SIRT1 [2])
1 | O=C(Nc1ccc2ncc(-c3ccccc3Cl)n2n1)c1cnccn1 [Compound 15] | C (EC1.5>25 μM) | B (Fold Activation <350%) | < 350% | C (EC1.5>25 μM)
2 | O=C(Nc1ccnc(C(F)(F)F)c1)c1ccc2ncc(-c3ccccc3F)n2n1 [Compound 12] |  |  | < 350% | B (EC1.5 1-25 μM)
3 | O=C(Nc1cccc(N2CCOCC2)n1)c1ccc2ncc(-c3cccc(Cl)c3)n2n1 [Compound 46] |  |  | < 350% | B (EC1.5 1-25 μM)
4 | Cn1ccc(C(=O)Nc2ccc3ncc(-c4ccccc4F)n3n2)n1 [Compound 36] |  |  | < 350% | A (EC1.5<1 μM)
5 | O=C(Nc1ccc(F)cn1)c1ccc2ncc(-c3cccc(C(F)(F)F)c3)n2n1 [Compound 11] |  |  | < 350% | B (EC1.5 1-25 μM)
6 | O=C(Nc1ccccn1)c1ccc2nnc(-c3cccc(OC(F)(F)F)c3)n2n1 [Compound 2] |  |  | < 350% | C (EC1.5>25 μM)
7 | CS(=O)(=O)c1cccc(-c2nnc3ccc(C(=O)Nc4nccs4)nn23)c1 [Compound 42] |  |  | < 350% | C (EC1.5>25 μM)
8 | O=C(Nc1ccc2ncc(-c3ccccc3Cl)n2n1)c1ccccn1 [Compound 41] |  |  | < 350% | C (EC1.5>25 μM)
9 | O=C(Nc1ccc2ncc(-c3ccccc3Cl)n2n1)c1ncccn1 [Compound 33] |  |  | ≥ 350% | A (EC1.5<1 μM)
10 | O=C(Nc1ccccn1)c1ccc2nnc(-c3cccc(C(F)(F)F)c3)n2n1 [Compound 3] |  |  |  | C (EC1.5>25 μM)
11 | O=C(Nc1ccnc(C2CCOCC2)c1)c1ccc2ncc(-c3cccc(C(F)(F)F)c3)n2n1 [Compound 47] |  |  | ≥ 350% | A (EC1.5<1 μM)
12 | O=C(Nc1cccc(C(F)(F)F)n1)c1ccc2ncc(-c3ccccc3F)n2n1 [Compound 9] |  |  | < 350% | B (EC1.5 1-25 μM)
13 | O=C(Nc1ccnc(C(F)(F)F)c1)c1ccc2ncc(-c3cccc(F)c3)n2n1 [Compound 50] |  |  | < 350% | C (EC1.5>25 μM)
14 | O=C(Nc1cccc(N2CCOCC2)n1)c1ccc2ncc(-c3ccccc3F)n2n1 [Compound 32] |  |  | < 350% | C (EC1.5>25 μM)
15 | O=C(Nc1ccc2ncc(-c3ccccc3F)n2n1)c1cnccn1 [Compound 13] |  |  | < 350% | C (EC1.5>25 μM)
16 | O=C(Nc1ccnc(C(F)(F)F)c1)c1ccc2ncc(-c3ccccc3Cl)n2n1 [Compound 29] |  |  | < 350% | B (EC1.5 1-25 μM)
17 | O=C(Nc1nccs1)c1ccc2nnc(-c3cccc(C(F)(F)F)c3)n2n1 [Compound 49] |  |  | < 350% | C (EC1.5>25 μM)
18 | O=C(Nc1cccc(C(F)(F)F)n1)c1ccc2nnc(-c3cccc(F)c3)n2n1 [Compound 7] |  |  | < 350% | 
19 | O=C(Nc1ccc2ncc(-c3ccccc3F)n2n1)c1ncccn1 [Compound 25] |  |  | < 350% | B (EC1.5 1-25 μM)
20 | Cn1ccc(C(=O)Nc2ccc3ncc(-c4ccccc4Cl)n3n2)n1 [Compound 45] |  |  | < 350% | C (EC1.5>25 μM)

Now from value to compound:

Row | TYP EC1.5 (μM) (SIRT1 [1]) | TYP % Fold Act (SIRT1 [1]) | Emax (SIRT1 [2]) | TAMRA EC1.5 (μM) (SIRT1 [2]) | SMILES
21 |  |  | < 350% | B (EC1.5 1-25 μM) | O=C(Nc1ccc2ncc(-c3cccc(F)c3)n2n1)c1nccs1 [Compound 17]
22 |  |  | < 350% | B (EC1.5 1-25 μM) | O=C(Nc1ccc2ncc(-c3cccc(Cl)c3)n2n1)c1ncccn1 [Compound 37]
23 |  |  | < 350% | B (EC1.5 1-25 μM) | O=C(Nc1ccc2ncc(-c3ccccc3Cl)n2n1)c1nccs1 [Compound 24]
24 |  |  | < 350% | A (EC1.5<1 μM) | O=C(Nc1ccc2ncc(-c3cccc(Cl)c3)n2n1)c1cnccn1 [Compound 34]
25 |  |  | < 350% | B (EC1.5 1-25 μM) | O=C(Nc1ccc2ncc(-c3cccc(C(F)(F)F)c3)n2n1)c1ccccn1 [Compound 31]
26 |  |  | < 350% | B (EC1.5 1-25 μM) | O=C(Nc1ccc2ncc(-c3cccc(F)c3)n2n1)c1cnccn1 [Compound 20]
27 |  |  | < 350% | B (EC1.5 1-25 μM) | O=C(Nc1ccc2ncc(-c3cccc(Cl)c3)n2n1)c1ccccn1 [Compound 30]
28 | C (EC1.5>25 μM) | B (Fold Activation <350%) |  |  | O=C(Nc1ccc2ncc(-c3cccc(C(F)(F)F)c3)n2n1)c1ncccn1 [Compound 39]
29 |  |  | < 350% | B (EC1.5 1-25 μM) | O=C(Nc1ccc2ncc(-c3cccc(F)c3)n2n1)c1ccccn1 [Compound 28]
30 |  |  | < 350% | B (EC1.5 1-25 μM) | O=C(Nc1ccc2ncc(-c3cccc(Cl)c3)n2n1)c1nccs1 [Compound 27]
31 |  |  | < 350% | A (EC1.5<1 μM) | Cn1ccc(C(=O)Nc2ccc3ncc(-c4cccc(Cl)c4)n3n2)n1 [Compound 35]
32 |  |  | < 350% | C (EC1.5>25 μM) | Cn1ccc(C(=O)Nc2ccc3ncc(-c4cccc(F)c4)n3n2)n1 [Compound 43]
33 |  |  | < 350% | C (EC1.5>25 μM) | Cn1ccc(C(=O)Nc2ccc3ncc(-c4cccc(C(F)(F)F)c4)n3n2)n1 [Compound 40]
